Earlier results on 2 compounds are cited in article PMC9516332 (Frontiers in Oncology, 2022).

Common to all, as to settings: cited from earlier work
The target in series [1] is panel of 255 wild-type kinases (Homo sapiens, UniProt Q9H1R3).
Series [2] has as its target T1, panel of 255 wild-type kinases (Homo sapiens, UniProt Q92630).
T1 sequence (Q92630 1-601): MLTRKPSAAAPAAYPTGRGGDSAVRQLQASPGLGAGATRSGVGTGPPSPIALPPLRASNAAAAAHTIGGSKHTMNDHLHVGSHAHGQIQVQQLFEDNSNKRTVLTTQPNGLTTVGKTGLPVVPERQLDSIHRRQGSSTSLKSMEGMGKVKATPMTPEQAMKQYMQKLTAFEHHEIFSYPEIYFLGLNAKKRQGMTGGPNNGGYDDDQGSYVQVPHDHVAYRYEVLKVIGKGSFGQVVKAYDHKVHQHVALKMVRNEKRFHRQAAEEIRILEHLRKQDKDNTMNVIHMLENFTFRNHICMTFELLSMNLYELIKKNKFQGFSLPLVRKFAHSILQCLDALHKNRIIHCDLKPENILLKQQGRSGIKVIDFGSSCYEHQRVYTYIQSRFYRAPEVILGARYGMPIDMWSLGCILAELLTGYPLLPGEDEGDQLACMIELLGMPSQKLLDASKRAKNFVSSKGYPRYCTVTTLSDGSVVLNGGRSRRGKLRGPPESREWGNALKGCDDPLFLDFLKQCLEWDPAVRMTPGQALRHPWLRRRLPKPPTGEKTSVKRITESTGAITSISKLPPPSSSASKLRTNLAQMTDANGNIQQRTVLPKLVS

The target in series [3] is T2, panel of 255 wild-type kinases (Homo sapiens, UniProt Q13043).
T2 sequence (Q13043 1-487): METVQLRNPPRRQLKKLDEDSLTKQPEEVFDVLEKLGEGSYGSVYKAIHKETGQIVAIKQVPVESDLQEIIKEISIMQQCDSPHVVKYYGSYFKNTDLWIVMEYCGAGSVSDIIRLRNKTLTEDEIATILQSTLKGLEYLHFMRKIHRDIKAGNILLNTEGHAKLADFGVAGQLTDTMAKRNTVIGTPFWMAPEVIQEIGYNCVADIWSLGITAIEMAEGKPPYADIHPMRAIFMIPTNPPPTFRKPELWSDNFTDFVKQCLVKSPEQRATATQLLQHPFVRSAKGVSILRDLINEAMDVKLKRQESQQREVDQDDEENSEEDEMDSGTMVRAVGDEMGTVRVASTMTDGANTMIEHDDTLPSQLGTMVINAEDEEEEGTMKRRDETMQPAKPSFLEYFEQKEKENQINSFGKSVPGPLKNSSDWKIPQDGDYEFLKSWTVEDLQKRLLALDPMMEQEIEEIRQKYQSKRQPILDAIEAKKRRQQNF

Series [4] concerns the target panel of 255 wild-type kinases (Homo sapiens, UniProt P50613).
The target of series [5] is T3, panel of 255 wild-type kinases (Homo sapiens, UniProt P51955).
T3 sequence (P51955 1-445): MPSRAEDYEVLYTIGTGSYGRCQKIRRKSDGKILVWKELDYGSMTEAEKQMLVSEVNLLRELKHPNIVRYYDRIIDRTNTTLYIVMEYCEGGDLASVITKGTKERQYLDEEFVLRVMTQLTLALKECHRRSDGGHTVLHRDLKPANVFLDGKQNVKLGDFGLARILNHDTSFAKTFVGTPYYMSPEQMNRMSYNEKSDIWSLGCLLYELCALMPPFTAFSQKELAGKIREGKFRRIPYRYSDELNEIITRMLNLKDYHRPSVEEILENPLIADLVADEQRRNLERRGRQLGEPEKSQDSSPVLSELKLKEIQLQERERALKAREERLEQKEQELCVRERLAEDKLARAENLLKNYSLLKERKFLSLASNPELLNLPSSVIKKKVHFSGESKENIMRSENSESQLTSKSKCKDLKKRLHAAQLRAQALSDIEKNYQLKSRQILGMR

The target in series [6] is panel of 255 wild-type kinases (Homo sapiens, UniProt Q13555).
In series [7] the target is panel of 255 wild-type kinases (Homo sapiens, UniProt Q96SB4).
Series [8] concerns the target panel of 255 wild-type kinases (Homo sapiens, UniProt Q16512).
The target of series [9] is panel of 255 wild-type kinases (Homo sapiens, UniProt P12931).

Like-named read-outs stand apart in the source and are kept apart here.

In the case of `CCc1cc2c(cc1N1CCC(N3CCOCC3)CC1)C(C)(C)c1[nH]c3cc(C#N)ccc3c1C2=O` [alectinib], the “%-inhibition at 1 µmol/L, skMLCK” value in series [1] (kinase skMLCK, 1 µmol/L single concentration, ref DOI: 10.1158/1535-7163.MCT-18-0877) is given as -11%. The “%-inhibition at 1 µmol/L, DYRK2” value in series [2] (kinase DYRK2, 1 µmol/L single concentration, ref DOI: 10.1158/1535-7163.MCT-18-0877) is on record as 6%. In addition, in series [3] (MST1, 1 µmol/L single concentration, ref DOI: 10.1158/1535-7163.MCT-18-0877), the “%-inhibition, MST1” value is given as 10%. In [4] (CDK7/CycH/MAT1 kinase assay, 1 µmol/L single concentration, ref DOI: 10.1158/1535-7163.MCT-18-0877), the “%-inhibition CDK7/CycH/MAT1” value was -12%. Also, the “%-inhibition, NEK2” value in series [5] (NEK2, 1 µmol/L single concentration, ref DOI: 10.1158/1535-7163.MCT-18-0877) is 3.37%. The “%-inhibition CaMK2γ” value in series [6] (CaMK2γ kinase assay, 1 µmol/L single concentration, ref DOI: 10.1158/1535-7163.MCT-18-0877) is 6%. Besides, the “%-inhibition at 1 µmol/L, SRPK1” value in series [7] (kinase SRPK1, 1 µmol/L single concentration, ref DOI: 10.1158/1535-7163.MCT-18-0877) is recorded as 83%. The “%-inhibition at 1 µmol/L, PKN1” value in [8] (kinase PKN1, 1 µmol/L single concentration, ref DOI: 10.1158/1535-7163.MCT-18-0877) is on record as 13%. In addition, in series [9] (kinase SRC, 1 µmol/L single concentration, ref DOI: 10.1158/1535-7163.MCT-18-0877), the “%-inhibition at 1 µmol/L, SRC” value is reported as 10%.

`COc1cc(N2CCC(N3CCN(C)CC3)CC2)ccc1Nc1ncc(Cl)c(Nc2ccccc2P(C)(C)=O)n1` [brigatinib]: the “%-inhibition at 1 µmol/L, skMLCK” value in series [1] was -6%. In addition, the “%-inhibition at 1 µmol/L, DYRK2” value in series [2] is recorded as 29%. Also, in series [3], the “%-inhibition, MST1” value was 71%. Also, the “%-inhibition CDK7/CycH/MAT1” value in [4] is given as 55%. The “%-inhibition, NEK2” value in series [5] is 5.7%. Besides, the “%-inhibition CaMK2γ” value in [6] is 96%. Moreover, in series [7], the “%-inhibition at 1 µmol/L, SRPK1” value is 4%. Moreover, in [8], the “%-inhibition at 1 µmol/L, PKN1” value is reported as 77%. Moreover, the “%-inhibition at 1 µmol/L, SRC” value in series [9] was 65%.
